Converted amounts (≈) assume the structure as drawn.
Assay: physchem
Conditions: water
Experimental: The degree of formation of an inclusion complex between the drug and β-cyclodextrin was determined quantitatively by Differential Scanning Calorimetry (DSC).

solubility: 1000 µg/mL (≈ 2960 µM)
Compound: NC(N)=Nc1nc(CSCCC(N)=NS(N)(=O)=O)cs1 [famotidine]
